Earlier results on one molecule are cited in patent US20220088150A1, “Octreotide Microsphere-Based Arterial Embolization for Treating Obesity” (Biovena Science, LLC, priority 2018, published 2022).

One data set relates to insulin hypersecretion. Conditions: six months, 5-15 μg/kg/day.
The conditions of data set [1]: subcutaneously 5-15 μg/kg/day, six months, compared with placebo.
A further data set relates to ghrelin secretion. Conditions: continuous infusion, dose- and time-dependent.

With `C[C@@H](O)[C@@H]1NC(=O)[C@H](CCCCN)NC(=O)[C@@H](Cc2c[nH]c3ccccc23)NC(=O)[C@H](Cc2ccccc2)NC(=O)[C@@H](NC(=O)[C@H](N)Cc2ccccc2)CSSC[C@@H](C(=O)N[C@H](CO)[C@@H](C)O)NC1=O` [octreotide, D-phenylalanyl-L-cysteinyl-L-phenylalanyl-D-tryptophyl-L-lysyl-L-threonyl-L-cysteinyl-L-threoninol (2→7)-disulfide], the calorie intake decrease result in the data set on insulin hypersecretion was “approximately 700 kcal/day”. Also, the BMI result in the data set with insulin hypersecretion (vs pre-study observation period, p=0.0001) is listed as “BMI decrease”. For the same molecule, in the data set on insulin hypersecretion (vs six-month pre-study observation period, p=0.04), the weight loss result is reported as “greater weight loss”. Further, the “weight and BMI” value in data set [1] is “effective in stabilizing weight and BMI”. Further, the splanchnic blood flow result (healthy human subjects) is “reduces splanchnic blood flow”. Besides, for the setting “human, in vivo”, the gastric emptying result is on record as “delays gastric emptying”. Also, the ghrelin secretion result in the data set with ghrelin secretion was “suppresses ghrelin secretion”.
